Assay results taken from BindingDB's records for doi:10.1016/j.bioorg.2016.09.004 (North-West University, 2016).

How the values were obtained:
[1] = target: T1, Amine oxidase [flavin-containing] A (Homo sapiens, UniProt P21397); experiment: MAO-A and MAO-B Fluorescence Assay; details: pH 7.4
T1 sequence (P21397 whole entry): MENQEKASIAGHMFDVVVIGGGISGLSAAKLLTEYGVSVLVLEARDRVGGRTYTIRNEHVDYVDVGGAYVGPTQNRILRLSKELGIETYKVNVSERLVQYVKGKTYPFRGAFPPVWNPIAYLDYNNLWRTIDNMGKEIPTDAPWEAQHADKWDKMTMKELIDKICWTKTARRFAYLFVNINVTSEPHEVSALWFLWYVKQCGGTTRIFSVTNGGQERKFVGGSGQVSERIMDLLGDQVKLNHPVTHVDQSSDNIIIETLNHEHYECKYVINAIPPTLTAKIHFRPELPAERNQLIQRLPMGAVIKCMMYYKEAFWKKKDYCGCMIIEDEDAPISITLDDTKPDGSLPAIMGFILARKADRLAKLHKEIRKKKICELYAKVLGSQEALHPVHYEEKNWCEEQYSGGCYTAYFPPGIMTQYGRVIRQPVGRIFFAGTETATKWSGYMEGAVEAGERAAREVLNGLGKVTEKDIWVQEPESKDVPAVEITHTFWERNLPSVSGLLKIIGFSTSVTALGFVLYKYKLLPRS
Procedure: (§1) Recombinant human MAO-A and MAO-B were used for these studies and kynuramine served as enzyme substrate. Kynuramine is oxidised by both MAO isoforms to yield 4-hydroxyquinoline as ultimate product. For the enzyme reactions MAO-A (0.0075 mg/mL) or MAO-B (0.015 mg/mL), the substrate (50 μM) and the test inhibitors (0.003-100 μM) were combined and incubated for 20 min. For this purpose potassium phosphate buffer (pH 7.4, 100 mM) served as solvent. At endpoint the reactions were alkalinised (NaOH) and the fluorescence intensity of 4-hydroxyquinoline was measured (kex = 310 nm; kem = 400 nm).

[2] = target: T2, Amine oxidase [flavin-containing] B (Homo sapiens, UniProt P27338); experiment: MAO-A and MAO-B Fluorescence Assay; details: pH 7.4
T2 sequence (P27338 whole entry): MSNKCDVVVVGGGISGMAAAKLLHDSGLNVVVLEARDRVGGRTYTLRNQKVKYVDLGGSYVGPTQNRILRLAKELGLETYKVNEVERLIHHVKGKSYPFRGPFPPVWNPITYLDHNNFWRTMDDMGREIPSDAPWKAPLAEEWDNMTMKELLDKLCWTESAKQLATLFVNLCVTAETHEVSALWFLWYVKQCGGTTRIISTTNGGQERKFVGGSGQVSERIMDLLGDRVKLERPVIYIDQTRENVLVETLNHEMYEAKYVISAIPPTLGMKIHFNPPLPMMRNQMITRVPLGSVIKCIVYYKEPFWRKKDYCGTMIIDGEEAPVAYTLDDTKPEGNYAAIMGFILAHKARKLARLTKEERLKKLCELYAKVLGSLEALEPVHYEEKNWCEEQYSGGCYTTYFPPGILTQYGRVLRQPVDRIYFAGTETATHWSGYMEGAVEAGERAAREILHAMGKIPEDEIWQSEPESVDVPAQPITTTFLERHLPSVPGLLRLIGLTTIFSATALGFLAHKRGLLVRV
Procedure: as §1

Row | IC50 [1] | IC50 [2] | Compound
1 | 1200 nM | 889 nM | O=C1/C(=C/c2ccco2)Cc2ccccc21
2 | 5210 nM | 229 nM | O=C1/C(=C/C2CCCCC2)Cc2ccccc21 [(2E)-2-(Cyclohexylmethylidene)-2,3-dihydro-1H-inden-1-one (11l)]
3 | – | 139 nM | COc1ccc2c(c1)C/C(=C\C1CCCCC1)C2=O [(2E)-2-(Cyclohexylmethylidene)-5-methoxy-2,3-dihydro-1Hinden-1-one (11m)]
4 | 2330 nM | 394 nM | COc1ccc2c(c1)C/C(=C\c1ccco1)C2=O [(2E)-2-(Furan-2-ylmethylidene)-5-methoxy-2,3-dihydro-1Hinden-1-one (11g)]
5 | 853 nM | 1530 nM | O=C1/C(=C/c2ccccn2)Cc2ccccc21 [(2E)-2-(Pyridin-2-ylmethylidene)-2,3-dihydro-1H-inden-1-one (11c)]
6 | 61 nM | 1270 nM | O=C1/C(=C/c2cccnc2)Cc2ccccc21 [(2E)-2-(Pyridin-3-ylmethylidene)-2,3-dihydro-1H-inden-1-one (11a)]
7 | 1330 nM | 418 nM | O=C1/C(=C/c2cccs2)Cc2ccccc21 [(2E)-2-(Thiophen-2-ylmethylidene)-2,3-dihydro-1H-inden-1-one (11h)]
8 | 1510 nM | 114 nM | O=C1/C(=C/c2ccsc2)Cc2ccccc21 [(2E)-2-(Thiophen-3-ylmethylidene)-2,3-dihydro-1H-inden-1-one (11k)]
9 | 471 nM | 465 nM | O=C1/C(=C/c2cccnc2Cl)Cc2ccccc21 [(2E)-2-[(2-Chloropyridin-3-yl)methylidene]-2,3-dihydro-1Hinden-1-one (11e)]
10 | 183 nM | 4.4 nM | COc1ccc2c(c1)C/C(=C\c1ccc(Br)o1)C2=O [(2E)-2-[(5-Bromofuran-2-yl)methylidene]-5-methoxy-2,3-dihydro-1H-inden-1-one (11o)]
11 | 302 nM | 112 nM | COc1ccc2c(c1)C/C(=C\c1ccccn1)C2=O [(2E)-5-Methoxy-2-(pyridin-2-ylmethylidene)-2,3-dihydro-1Hinden-1-one (11d)]
12 | 8550 nM | 338 nM | COc1ccc2c(c1)C/C(=C\c1cccnc1)C2=O [(2E)-5-Methoxy-2-(pyridin-3-ylmethylidene)-2,3-dihydro-1Hinden-1-one (11b)]
13 | 5180 nM | 114 nM | COc1ccc2c(c1)C/C(=C\c1cccs1)C2=O [(2E)-5-Methoxy-2-(thiophen-2-ylmethylidene)-2,3-dihydro-1H-inden-1-one (11i)]
14 | 4730 nM | 26 nM | COc1ccc2c(c1)C/C(=C\c1ccc(C)o1)C2=O [(2E)-5-Methoxy-2-[(5-methylfuran-2-yl)methylidene]-2,3-dihydro-1H-inden-1-one (11n)]
